Test results from US10954405B2, “Water-based diacetylene ink, hydrochromic polydiacetylene paper prepared using the ink, and use thereof” (INDUSTRY-UNIVERSITY COOPERATION FOUNDATION HANYANG …, priority 2015, dated 2021).

Assay: Solubility of DA-1 in water dependent upon temperature (FIG. 6C)
Format: physicochemical
Settings: sample of DA-1 and water in a plastic bag on a paper printed with "A", temperature elevated; clearer at 25° C. and 30° C.
Description: FIGS. 6A-6C are a set of photographs illustrating the temperature-dependent reaction of the moisture test paper manufactured according to the moisture test paper manufacture example and solubility of DA-1 in water dependent upon temperature.
Referring to FIG. 6C when a sample including DA-1 and water was put into a plastic bag, the plastic bag was put on a paper on which “A” was printed, and temperature was elevated, the lower “A” began to be observed from about 20° C. and became clearer as temperature was elevated to 25° C. and 30° C.

In the case of `CCCCCCCCCCCCC#CC#CCCCCCCCCC(=O)NCCCn1cc[n+](CC#N)c1` [DA-1], the “temperature from which DA-1 dissolves in water (printed "A" under the sample began to be observed)” value is reported as “about 20 °C”.
